Results: PMC4641580 (ACS Medicinal Chemistry Letters, 2015)

Experiments:
[1] = target: Mycobacterium tuberculosis PtpA (Mycobacterium tuberculosis, UniProt P9WIA1)
human LYP = target: T1, human LYP (Homo sapiens, UniProt Q9Y2R2); assay type: biochemical
T1 sequence (Q9Y2R2 1-807): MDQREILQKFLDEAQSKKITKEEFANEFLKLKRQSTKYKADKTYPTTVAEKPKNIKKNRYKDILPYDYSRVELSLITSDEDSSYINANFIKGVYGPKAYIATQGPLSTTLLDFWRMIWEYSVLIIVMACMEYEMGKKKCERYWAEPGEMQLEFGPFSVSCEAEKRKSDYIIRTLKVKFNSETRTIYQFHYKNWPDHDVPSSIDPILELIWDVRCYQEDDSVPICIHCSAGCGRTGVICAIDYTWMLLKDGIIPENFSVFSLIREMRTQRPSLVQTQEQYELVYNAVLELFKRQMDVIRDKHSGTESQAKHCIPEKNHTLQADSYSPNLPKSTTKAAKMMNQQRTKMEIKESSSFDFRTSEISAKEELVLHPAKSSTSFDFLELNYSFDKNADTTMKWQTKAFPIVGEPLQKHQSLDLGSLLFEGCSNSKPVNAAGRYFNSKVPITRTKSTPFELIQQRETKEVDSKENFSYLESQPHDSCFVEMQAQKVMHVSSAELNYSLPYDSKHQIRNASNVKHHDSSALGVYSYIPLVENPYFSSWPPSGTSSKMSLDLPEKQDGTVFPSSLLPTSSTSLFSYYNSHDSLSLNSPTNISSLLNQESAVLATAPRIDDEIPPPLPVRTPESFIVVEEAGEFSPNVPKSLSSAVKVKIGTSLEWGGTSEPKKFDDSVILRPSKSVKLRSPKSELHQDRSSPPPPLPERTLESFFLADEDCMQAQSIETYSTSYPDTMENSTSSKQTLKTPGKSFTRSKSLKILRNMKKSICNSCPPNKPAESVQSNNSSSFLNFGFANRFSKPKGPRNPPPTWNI

human PTP-PEST = target: T2, human PTP-PEST (Homo sapiens, UniProt Q05209); assay type: biochemical
T2 sequence (Q05209 1-780): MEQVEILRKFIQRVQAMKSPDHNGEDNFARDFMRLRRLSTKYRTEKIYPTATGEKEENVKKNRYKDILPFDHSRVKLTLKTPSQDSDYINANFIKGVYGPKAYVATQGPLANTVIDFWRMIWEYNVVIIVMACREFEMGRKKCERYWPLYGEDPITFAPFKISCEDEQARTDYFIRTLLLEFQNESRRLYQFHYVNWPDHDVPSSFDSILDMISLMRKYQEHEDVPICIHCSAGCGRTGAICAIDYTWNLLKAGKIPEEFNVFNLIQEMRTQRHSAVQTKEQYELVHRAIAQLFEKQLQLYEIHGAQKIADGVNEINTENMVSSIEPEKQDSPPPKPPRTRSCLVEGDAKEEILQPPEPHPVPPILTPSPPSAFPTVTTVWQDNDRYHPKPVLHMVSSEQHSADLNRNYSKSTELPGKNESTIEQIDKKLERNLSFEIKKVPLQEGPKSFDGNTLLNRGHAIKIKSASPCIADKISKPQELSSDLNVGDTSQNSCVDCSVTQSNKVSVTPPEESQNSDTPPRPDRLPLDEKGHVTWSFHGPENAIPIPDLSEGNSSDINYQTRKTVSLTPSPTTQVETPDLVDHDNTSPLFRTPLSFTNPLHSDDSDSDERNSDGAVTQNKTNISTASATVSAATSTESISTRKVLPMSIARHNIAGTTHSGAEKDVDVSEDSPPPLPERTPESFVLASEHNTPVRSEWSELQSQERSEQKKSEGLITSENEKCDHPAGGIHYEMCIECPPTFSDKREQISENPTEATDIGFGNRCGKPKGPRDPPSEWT

YopH = YopH (Yersinia enterocolitica, UniProt P15273); assay type: biochemical; conditions: read-out: Ki against YopH
YopH, sequence (P15273 whole entry, looked up): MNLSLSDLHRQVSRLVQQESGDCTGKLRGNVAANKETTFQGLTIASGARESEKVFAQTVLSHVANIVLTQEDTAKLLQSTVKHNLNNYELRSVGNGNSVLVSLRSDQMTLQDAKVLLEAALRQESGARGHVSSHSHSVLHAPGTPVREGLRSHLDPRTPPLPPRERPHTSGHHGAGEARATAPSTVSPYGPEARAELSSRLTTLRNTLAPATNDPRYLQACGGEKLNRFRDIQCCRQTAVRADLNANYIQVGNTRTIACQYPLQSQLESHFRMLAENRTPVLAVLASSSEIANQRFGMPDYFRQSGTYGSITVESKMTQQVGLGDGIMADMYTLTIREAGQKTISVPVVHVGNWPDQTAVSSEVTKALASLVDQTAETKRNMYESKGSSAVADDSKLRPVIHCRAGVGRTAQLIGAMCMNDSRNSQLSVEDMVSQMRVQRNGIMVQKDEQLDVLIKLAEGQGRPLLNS

human PTP1B = target: T3, human PTP1B (Homo sapiens, UniProt P18031); assay type: biochemical
T3 sequence (P18031 1-435): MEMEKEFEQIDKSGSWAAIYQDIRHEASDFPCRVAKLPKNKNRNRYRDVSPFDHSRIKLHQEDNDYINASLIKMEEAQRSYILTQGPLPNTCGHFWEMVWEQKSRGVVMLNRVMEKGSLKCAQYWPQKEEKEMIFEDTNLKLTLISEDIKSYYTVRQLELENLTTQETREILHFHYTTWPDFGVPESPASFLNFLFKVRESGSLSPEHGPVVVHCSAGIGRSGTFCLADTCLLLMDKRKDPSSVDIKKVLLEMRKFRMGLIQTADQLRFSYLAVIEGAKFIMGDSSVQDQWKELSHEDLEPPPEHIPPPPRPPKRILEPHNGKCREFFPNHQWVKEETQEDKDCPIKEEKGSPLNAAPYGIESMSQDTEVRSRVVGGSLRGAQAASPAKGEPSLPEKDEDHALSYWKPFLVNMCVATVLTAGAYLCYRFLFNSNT

[2] = tested on: Mycobacterium tuberculosis PtpB; assay type: biochemical; conditions: read-out: IC50 PtpB

Mycobacterium tuberculosis PtpA, sequence (P9WIA1 whole entry): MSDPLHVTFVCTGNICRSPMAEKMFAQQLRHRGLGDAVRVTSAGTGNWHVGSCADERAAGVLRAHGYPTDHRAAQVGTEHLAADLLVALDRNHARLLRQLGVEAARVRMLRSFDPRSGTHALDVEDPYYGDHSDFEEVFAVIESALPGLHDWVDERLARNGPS

## [O]=[V]([S]c1cccc[n+]1[O-])[S]c1cccc[n+]1[O-] [Compound 3, Bis(pyridine-2-thiol N-oxide) oxovanadium(IV)]
[1]
  SI (IC50PTP/IC50YopH) PtpA: 31.5
[1]; read-out: IC50 PtpA
  IC50: 9.12 ± 0.26 µM
Human LYP
  SI (IC50PTP/IC50YopH) LYP: 97.6
Human LYP; read-out: IC50 LYP
  IC50: 28.3 ± 1.71 µM
Human PTP-PEST
  SI (IC50PTP/IC50YopH) PTP–PEST: 142.4
Human PTP-PEST; read-out: IC50 PTP–PEST
  IC50: 41.3 ± 3.19 µM
YopH
  Ki: 0.19 µM
Human PTP1B
  SI (IC50PTP/IC50YopH) PTP1B: 2.7
Human PTP1B; read-out: IC50 PTP1B
  IC50: 0.78 ± 0.02 µM
[2]
  IC50: 52.6 ± 1.56 µM
